Measurements from US20210403435A1, “HERBICIDAL COMPOUNDS” (SYNGENTA CROP PROTECTION AG, priority 2018, published 2021).
Like-named read-outs stand apart in the source and are kept apart here.

Legend:
Test in all cases: Post-emergence efficacy, glasshouse, evaluated after 13 days
Format in all cases: in vivo
[1] = test system: Lolium perenne (LOLPE); details: Lolium perenne, 312 h, read-out: Control of weed species LOLPE (100=total damage to plant; 0=no damage to plant)
Description: (§1) Seeds of a variety of test species were sown in standard soil in pots. After cultivation for 14 days (post-emergence) under controlled conditions in a glasshouse (at 24/16° C., day/night; 14 hours light; 65% humidity), the plants were sprayed with an aqueous spray solution derived from the dissolution of the technical active ingredient formula (I) in a small amount of acetone and a special solvent and emulsifier mixture referred to as IF50 (11.12% Emulsogen EL360 TM+44.44% N-methylpyrrolidone+44.44% Dowanol DPM glycol ether), to create a 50 g/l solution which was then diluted to required concentration using 0.25% or 1% Empicol ESC70 (Sodium lauryl ether sulphate)+1% ammonium sulphate as diluent.
(§2) The test plants were then grown in a glasshouse under controlled conditions (at 24/16° C., day/night; 14 hours light; 65% humidity) and watered twice daily. After 13 days the test was evaluated (100=total damage to plant; 0=no damage to plant).
(§3) Ipomoea hederacea (IPOHE), Euphorbia heterophylla (EPHHL), Chenopodium album (CHEAL), Amaranthus palmeri (AMAPA), Lolium perenne (LOLPE), Digitaria sanguinalis (DIGSA), Eleusine indica (ELEIN), Echinochloa crus-galli (ECHCG), Setaria faberi (SETFA)

[2] = test system: Setaria faberi (SETFA); details: Setaria faberi, 312 h, read-out: Control of weed species SETFA (100=total damage to plant; 0=no damage to plant)
Description: as §1, §2, §3

[3] = test system: Echinochloa crus-galli (ECHCG); details: Echinochloa crus-galli, 312 h, read-out: Control of weed species ECHCG (100=total damage to plant; 0=no damage to plant)
Description: as §1, §2, §3

[4] = test system: Ipomoea hederacea (IPOHE); details: Ipomoea hederacea, 312 h, read-out: Control of weed species IPOHE (100=total damage to plant; 0=no damage to plant)
Description: as §1, §2, §3

[5] = test system: Amaranthus palmeri (AMAPA); details: Amaranthus palmeri, 312 h, read-out: Control of weed species AMAPA (100=total damage to plant; 0=no damage to plant)
Description: as §1, §2, §3

[6] = test system: Euphorbia heterophylla (EPHHL); details: Euphorbia heterophylla, 312 h, read-out: Control of weed species EPHHL (100=total damage to plant; 0=no damage to plant)
Description: as §1, §2, §3

[7] = test system: Digitaria sanguinalis (DIGSA); details: Digitaria sanguinalis, 312 h, read-out: Control of weed species DIGSA (100=total damage to plant; 0=no damage to plant)
Description: as §1, §2, §3

[8] = test system: Chenopodium album (CHEAL); details: Chenopodium album, 312 h, read-out: Control of weed species CHEAL (100=total damage to plant; 0=no damage to plant)
Description: as §1, §2, §3

[9] = test system: Eleusine indica (ELEIN); details: Eleusine indica, 312 h, read-out: Control of weed species ELEIN (100=total damage to plant; 0=no damage to plant)
Description: as §1, §2, §3

[10] = post-emergence application, 500 g/Ha, evaluated after 13 days

Compound | pest or weed control at 500 g/ha [1, 10] [%] | pest or weed control at 500 g/ha [2, 10] [%] | pest or weed control at 500 g/ha [3, 10] [%] | pest or weed control at 500 g/ha [4, 10] [%] | pest or weed control at 500 g/ha [5, 10] [%] | pest or weed control at 500 g/ha [6, 10] [%] | pest or weed control at 500 g/ha [7, 10] [%] | pest or weed control at 500 g/ha [8, 10] [%] | pest or weed control at 500 g/ha [9, 10] [%] | pest or weed control at 500 g/ha ([1]; post-emergence) [%] | pest or weed control at 500 g/ha ([2]; post-emergence) [%] | pest or weed control at 500 g/ha ([3]; post-emergence) [%] | pest or weed control at 500 g/ha ([4]; post-emergence) [%] | pest or weed control at 500 g/ha ([5]; post-emergence) [%] | pest or weed control at 500 g/ha ([6]; post-emergence) [%] | pest or weed control at 500 g/ha ([7]; post-emergence) [%] | pest or weed control at 500 g/ha ([8]; post-emergence) [%] | pest or weed control at 500 g/ha ([9]; post-emergence) [%]
CC(=O)CNC(=O)c1cc[n+](CCC(=O)O)nc1 [Compound A129] | 70 | 100 | 60 | 20 | 100 | 80 | 100 | 100 | 90 |  |  |  |  |  |  |  |  | 
CCNC(=O)c1cc[n+](CCP(=O)(OCC)OCC)nc1 [Compound A87] |  |  |  |  |  |  |  |  |  | 10 | 60 | 0 | 30 | 100 | 40 | 10 | 100 | 20
CCNC(=O)c1cc[n+](CCOS(=O)(=O)[O-])nc1 [Compound A80] | 70 | 80 | 90 | 70 | 100 | 90 | 90 | 100 | 90 |  |  |  |  |  |  |  |  | 
N#Cc1ccc(CNC(=O)c2cc[n+](CCC(=O)O)nc2)cc1 [Compound A96] | 20 | 30 | 20 | 40 | 100 | 100 | 20 | 80 | 50 |  |  |  |  |  |  |  |  | 
O=C(O)CC[n+]1ccc(C(=O)NCC2CC2)cn1 [Compound A65] | 50 | 100 | 50 | 20 | 90 | 100 | 100 | 90 | 90 |  |  |  |  |  |  |  |  | 
C[S+]([O-])CCNC(=O)c1cc[n+](CCC(=O)O)nc1 (stereo not drawn) [Compound A103] | 40 | 100 | 80 | 50 | 90 | 50 | 90 | 90 | 90 |  |  |  |  |  |  |  |  | 
CCNC(=O)c1cc[n+](CCCC(=O)O)nc1 [Compound A74] | 80 | 70 | 60 | 40 | 100 | 60 | 80 | 90 | 80 |  |  |  |  |  |  |  |  | 
CC(C)N(C)C(=O)c1cc[n+](CCC(=O)O)nc1 [Compound A34] | 30 | 70 | 30 | 20 | 100 | 70 | 70 | 40 | 20 |  |  |  |  |  |  |  |  | 
CN(C)S(=O)(=O)CCNC(=O)c1cc[n+](CCC(=O)O)nc1 [Compound A110] | 60 | 90 | 50 | 20 | 90 | 60 | 100 | 50 | 30 |  |  |  |  |  |  |  |  | 
COCCNC(=O)c1cc[n+](CCC(=O)O)nc1 [Compound A40] | 70 | 100 | 90 | 60 | 100 | 100 | 100 | 90 | 100 |  |  |  |  |  |  |  |  | 
O=C(NCc1ccc(F)cc1)c1cc[n+](CCS(=O)(=O)[O-])nc1 [Compound A23] | 20 | 70 | 70 | 50 | 100 | 60 | 60 | 70 | 60 |  |  |  |  |  |  |  |  | 
O=C(O)CC[n+]1ccc(C(=O)Nc2nccs2)cn1 [Compound A102] | 0 | 10 | 0 | 20 | 100 | 20 | 0 | 60 | 0 |  |  |  |  |  |  |  |  | 
O=C(O)CC[n+]1ccc(C(=O)Nc2ccon2)cn1 [Compound A41] | 10 | 90 | 50 | 20 | 80 | 90 | 70 | 90 | 60 |  |  |  |  |  |  |  |  | 
CC(C)N(C(=O)c1cc[n+](CCS(=O)(=O)O)nc1)C(C)C [Compound A14] | 0 | 10 | 10 | 30 | 100 | 50 | 30 | 70 | 10 |  |  |  |  |  |  |  |  | 
CN1CCN(C(=O)c2cc[n+](CCC(=O)O)nc2)CC1 [Compound A133] | 0 | 70 | 60 | 10 | 20 | 20 | 90 | 10 | 50 |  |  |  |  |  |  |  |  | 
N#CCCNC(=O)c1cc[n+](CCC(=O)O)nc1 [Compound A113] | 90 | 100 | 90 | 30 | 100 | 90 | 100 | 80 | 100 |  |  |  |  |  |  |  |  | 
